According to ChEMBL document CHEMBL1152441, “Discovery of [18F]N-(2-(diethylamino)ethyl)-6-fluoronicotinamide: a melanoma positron emission tomography imaging radiotracer with high tumor to body contrast ratio and rapid renal clearance” (J Med Chem, 2009):

Assays:
[1] = Biodistribution in eye of mouse B16F0 cells implanted C57BL/6J mouse assessed per gram of tissue at 0.4 to 5.5 MBq, iv after 0.25 hrs by gamma counter; format: ADME, organism-based; details: in vivo
[2] = Biodistribution in eye of mouse B16F0 cells implanted C57BL/6J mouse assessed per gram of tissue at 0.4 to 5.5 MBq, iv after 1 hr by gamma counter; format: ADME, organism-based; details: in vivo
Bone [3] = assay: Biodistribution in bone of mouse B16F0 cells implanted C57BL/6J mouse assessed per gram of tissue at 0.4 to 5.5 MBq, iv after 3 hrs by gamma counter; format: ADME, organism-based, Bone element; details: in vivo
Stomach [4] = assay: Biodistribution in stomach of mouse B16F0 cells implanted C57BL/6J mouse assessed per gram of tissue at 0.4 to 5.5 MBq, iv after 2 hrs by gamma counter; format: ADME, organism-based; details: in vivo
[5] = Biodistribution in tumor of mouse B16F0 cells implanted C57BL/6J mouse assessed per gram of tissue at 0.4 to 5.5 MBq, iv after 1 hr by gamma counter; format: ADME, organism-based, Neoplasm; details: in vivo
[6] = Biodistribution in eye of mouse B16F0 cells implanted C57BL/6J mouse assessed per gram of tissue at 0.4 to 5.5 MBq, iv after 3 hrs by gamma counter; format: ADME, organism-based; details: in vivo
Stomach [7] = assay: Biodistribution in stomach of mouse B16F0 cells implanted C57BL/6J mouse assessed per gram of tissue at 0.4 to 5.5 MBq, iv after 1 hr by gamma counter; format: ADME, organism-based; details: in vivo
[8] = Biodistribution in tumor of mouse B16F0 cells implanted C57BL/6J mouse assessed per gram of tissue at 0.4 to 5.5 MBq, iv after 3 hrs by gamma counter; format: ADME, organism-based, Neoplasm; details: in vivo
Lung [9] = assay: Biodistribution in lung of mouse B16F0 cells implanted C57BL/6J mouse assessed per gram of tissue at 0.4 to 5.5 MBq, iv after 6 hrs by gamma counter; format: ADME, organism-based; details: in vivo
Bone [10] = assay: Biodistribution in bone of mouse B16F0 cells implanted C57BL/6J mouse assessed per gram of tissue at 0.4 to 5.5 MBq, iv after 1 hr by gamma counter; format: ADME, organism-based, Bone element; details: in vivo
[11] = Biodistribution in eye of mouse B16F0 cells implanted C57BL/6J mouse assessed per gram of tissue at 0.4 to 5.5 MBq, iv after 0.5 hrs by gamma counter; format: ADME, organism-based; details: in vivo
Bone [12] = assay: Biodistribution in bone of mouse B16F0 cells implanted C57BL/6J mouse assessed per gram of tissue at 0.4 to 5.5 MBq, iv after 0.5 hrs by gamma counter; format: ADME, organism-based, Bone element; details: in vivo
Intestine [13] = assay: Biodistribution in intestine of mouse B16F0 cells implanted C57BL/6J mouse assessed per gram of tissue at 0.4 to 5.5 MBq, iv after 1 hr by gamma counter; format: ADME, organism-based; details: in vivo
Thyroid gland [14] = assay: Biodistribution in thyroid of mouse B16F0 cells implanted C57BL/6J mouse assessed per gram of tissue at 0.4 to 5.5 MBq, iv after 3 hrs by gamma counter; format: ADME, organism-based; details: in vivo
Thyroid gland [15] = assay: Biodistribution in thyroid of mouse B16F0 cells implanted C57BL/6J mouse assessed per gram of tissue at 0.4 to 5.5 MBq, iv after 2 hrs by gamma counter; format: ADME, organism-based; details: in vivo
Thyroid gland [16] = assay: Biodistribution in thyroid of mouse B16F0 cells implanted C57BL/6J mouse assessed per gram of tissue at 0.4 to 5.5 MBq, iv after 0.25 hrs by gamma counter; format: ADME, organism-based; details: in vivo
Stomach [17] = assay: Biodistribution in stomach of mouse B16F0 cells implanted C57BL/6J mouse assessed per gram of tissue at 0.4 to 5.5 MBq, iv after 6 hrs by gamma counter; format: ADME, organism-based; details: in vivo
Stomach [18] = assay: Biodistribution in stomach of mouse B16F0 cells implanted C57BL/6J mouse assessed per gram of tissue at 0.4 to 5.5 MBq, iv after 3 hrs by gamma counter; format: ADME, organism-based; details: in vivo
[19] = Biodistribution in tumor of mouse B16F0 cells implanted C57BL/6J mouse assessed per gram of tissue at 0.4 to 5.5 MBq, iv after 6 hrs by gamma counter; format: ADME, organism-based, Neoplasm; details: in vivo
[20] = Biodistribution in tumor of mouse B16F0 cells implanted C57BL/6J mouse assessed per gram of tissue at 0.4 to 5.5 MBq, iv after 0.5 hrs by gamma counter; format: ADME, organism-based, Neoplasm; details: in vivo
Intestine [21] = assay: Biodistribution in intestine of mouse B16F0 cells implanted C57BL/6J mouse assessed per gram of tissue at 0.4 to 5.5 MBq, iv after 0.25 hrs by gamma counter; format: ADME, organism-based; details: in vivo
Lung [22] = assay: Biodistribution in lung of mouse B16F0 cells implanted C57BL/6J mouse assessed per gram of tissue at 0.4 to 5.5 MBq, iv after 0.5 hrs by gamma counter; format: ADME, organism-based; details: in vivo
[23] = Biodistribution in eye of mouse B16F0 cells implanted C57BL/6J mouse assessed per gram of tissue at 0.4 to 5.5 MBq, iv after 2 hrs by gamma counter; format: ADME, organism-based; details: in vivo
Bone [24] = assay: Biodistribution in bone of mouse B16F0 cells implanted C57BL/6J mouse assessed per gram of tissue at 0.4 to 5.5 MBq, iv after 6 hrs by gamma counter; format: ADME, organism-based, Bone element; details: in vivo
Bone [25] = assay: Biodistribution in bone of mouse B16F0 cells implanted C57BL/6J mouse assessed per gram of tissue at 0.4 to 5.5 MBq, iv after 2 hrs by gamma counter; format: ADME, organism-based, Bone element; details: in vivo
Intestine [26] = assay: Biodistribution in intestine of mouse B16F0 cells implanted C57BL/6J mouse assessed per gram of tissue at 0.4 to 5.5 MBq, iv after 3 hrs by gamma counter; format: ADME, organism-based; details: in vivo
Spleen [27] = assay: Biodistribution in spleen of mouse B16F0 cells implanted C57BL/6J mouse assessed per gram of tissue at 0.4 to 5.5 MBq, iv after 0.5 hrs by gamma counter; format: ADME, organism-based; details: in vivo
[28] = Lipophilicity, log P at pH 7.5; format: physicochemical; details: buffer
Lung [29] = assay: Biodistribution in lung of mouse B16F0 cells implanted C57BL/6J mouse assessed per gram of tissue at 0.4 to 5.5 MBq, iv after 2 hrs by gamma counter; format: ADME, organism-based; details: in vivo
Spleen [30] = assay: Biodistribution in spleen of mouse B16F0 cells implanted C57BL/6J mouse assessed per gram of tissue at 0.4 to 5.5 MBq, iv after 6 hrs by gamma counter; format: ADME, organism-based; details: in vivo
Lung [31] = assay: Biodistribution in lung of mouse B16F0 cells implanted C57BL/6J mouse assessed per gram of tissue at 0.4 to 5.5 MBq, iv after 1 hr by gamma counter; format: ADME, organism-based; details: in vivo
Spleen [32] = assay: Biodistribution in spleen of mouse B16F0 cells implanted C57BL/6J mouse assessed per gram of tissue at 0.4 to 5.5 MBq, iv after 0.25 hrs by gamma counter; format: ADME, organism-based; details: in vivo
Lung [33] = assay: Biodistribution in lung of mouse B16F0 cells implanted C57BL/6J mouse assessed per gram of tissue at 0.4 to 5.5 MBq, iv after 0.25 hrs by gamma counter; format: ADME, organism-based; details: in vivo
Spleen [34] = assay: Biodistribution in spleen of mouse B16F0 cells implanted C57BL/6J mouse assessed per gram of tissue at 0.4 to 5.5 MBq, iv after 1 hr by gamma counter; format: ADME, organism-based; details: in vivo
Intestine [35] = assay: Biodistribution in intestine of mouse B16F0 cells implanted C57BL/6J mouse assessed per gram of tissue at 0.4 to 5.5 MBq, iv after 0.5 hrs by gamma counter; format: ADME, organism-based; details: in vivo
Bone [36] = assay: Biodistribution in bone of mouse B16F0 cells implanted C57BL/6J mouse assessed per gram of tissue at 0.4 to 5.5 MBq, iv after 0.25 hrs by gamma counter; format: ADME, organism-based, Bone element; details: in vivo
[37] = Biodistribution in tumor of mouse B16F0 cells implanted C57BL/6J mouse assessed per gram of tissue at 0.4 to 5.5 MBq, iv after 2 hrs by gamma counter; format: ADME, organism-based, Neoplasm; details: in vivo
[38] = Biodistribution in eye of mouse B16F0 cells implanted C57BL/6J mouse assessed per gram of tissue at 0.4 to 5.5 MBq, iv after 6 hrs by gamma counter; format: ADME, organism-based; details: in vivo
[39] = Biodistribution in tumor of mouse B16F0 cells implanted C57BL/6J mouse assessed per gram of tissue at 0.4 to 5.5 MBq, iv after 0.25 hrs by gamma counter; format: ADME, organism-based, Neoplasm; details: in vivo
Intestine [40] = assay: Biodistribution in intestine of mouse B16F0 cells implanted C57BL/6J mouse assessed per gram of tissue at 0.4 to 5.5 MBq, iv after 2 hrs by gamma counter; format: ADME, organism-based; details: in vivo
Spleen [41] = assay: Biodistribution in spleen of mouse B16F0 cells implanted C57BL/6J mouse assessed per gram of tissue at 0.4 to 5.5 MBq, iv after 2 hrs by gamma counter; format: ADME, organism-based; details: in vivo
Thyroid gland [42] = assay: Biodistribution in thyroid of mouse B16F0 cells implanted C57BL/6J mouse assessed per gram of tissue at 0.4 to 5.5 MBq, iv after 0.5 hrs by gamma counter; format: ADME, organism-based; details: in vivo
Spleen [43] = assay: Biodistribution in spleen of mouse B16F0 cells implanted C57BL/6J mouse assessed per gram of tissue at 0.4 to 5.5 MBq, iv after 3 hrs by gamma counter; format: ADME, organism-based; details: in vivo
Stomach [44] = assay: Biodistribution in stomach of mouse B16F0 cells implanted C57BL/6J mouse assessed per gram of tissue at 0.4 to 5.5 MBq, iv after 0.5 hrs by gamma counter; format: ADME, organism-based; details: in vivo
Stomach [45] = assay: Biodistribution in stomach of mouse B16F0 cells implanted C57BL/6J mouse assessed per gram of tissue at 0.4 to 5.5 MBq, iv after 0.25 hrs by gamma counter; format: ADME, organism-based; details: in vivo
Lung [46] = assay: Biodistribution in lung of mouse B16F0 cells implanted C57BL/6J mouse assessed per gram of tissue at 0.4 to 5.5 MBq, iv after 3 hrs by gamma counter; format: ADME, organism-based; details: in vivo
Thyroid gland [47] = assay: Biodistribution in thyroid of mouse B16F0 cells implanted C57BL/6J mouse assessed per gram of tissue at 0.4 to 5.5 MBq, iv after 6 hrs by gamma counter; format: ADME, organism-based; details: in vivo
Intestine [48] = assay: Biodistribution in intestine of mouse B16F0 cells implanted C57BL/6J mouse assessed per gram of tissue at 0.4 to 5.5 MBq, iv after 6 hrs by gamma counter; format: ADME, organism-based; details: in vivo
Thyroid gland [49] = assay: Biodistribution in thyroid of mouse B16F0 cells implanted C57BL/6J mouse assessed per gram of tissue at 0.4 to 5.5 MBq, iv after 1 hr by gamma counter; format: ADME, organism-based; details: in vivo

Drug uptake [1]: 14.7%
Drug uptake [2]: 18.8%
Drug uptake (Bone [3]): 0.62%
Drug uptake (Stomach [4]): 1.5%
Drug uptake [5]: 8.4%
Drug uptake [6]: 17.3%
Drug uptake (Stomach [7]): 3.4%
Drug uptake [8]: 7.8%
Drug uptake (Lung [9]): 0.07%
Drug uptake (Bone [10]): 1.4%
Drug uptake [11]: 16%
Drug uptake (Bone [12]): 2.1%
Drug uptake (Intestine [13]): 2.1%
Drug uptake (Thyroid gland [14]): 0.49%
Drug uptake (Thyroid gland [15]): 0.61%
Drug uptake (Thyroid gland [16]): 5.5%
Drug uptake (Stomach [17]): 0.19%
Drug uptake (Stomach [18]): 0.83%
Drug uptake [19]: 7.7%
Drug uptake [20]: 8.6%
Drug uptake (Intestine [21]): 5.4%
Drug uptake (Lung [22]): 2.9%
Drug uptake [23]: 17.3%
Drug uptake (Bone [24]): 0.52%
Drug uptake (Bone [25]): 0.58%
Drug uptake (Intestine [26]): 0.54%
Drug uptake (Spleen [27]): 7.2%
logD [28]: 1.1
Drug uptake (Lung [29]): 0.38%
Drug uptake (Spleen [30]): 0.47%
Drug uptake (Lung [31]): 1.6%
Drug uptake (Spleen [32]): 8.6%
Drug uptake (Lung [33]): 5.6%
Drug uptake (Spleen [34]): 2.4%
Drug uptake (Intestine [35]): 3.9%
Drug uptake (Bone [36]): 3.5%
Drug uptake [37]: 9.4%
Drug uptake [38]: 15.6%
Drug uptake [39]: 7%
Drug uptake (Intestine [40]): 0.71%
Drug uptake (Spleen [41]): 1.8%
Drug uptake (Thyroid gland [42]): 2.5%
Drug uptake (Spleen [43]): 0.89%
Drug uptake (Stomach [44]): 6.6%
Drug uptake (Stomach [45]): 9.4%
Drug uptake (Lung [46]): 0.25%
Drug uptake (Thyroid gland [47]): 0.17%
Drug uptake (Intestine [48]): 0.13%
Drug uptake (Thyroid gland [49]): 3.3%
SMILES: CCN(CC)CCNC(=O)c1ccc([18F])nc1
